Data on 15 compounds can be found in patent US11014917B2, “5-fluoro-c-(aryl or heterocyclyl)-glycoside derivatives useful as dual SGLT1 / SGLT2 modulators” (Janssen Pharmaceutica NV, priority 2017, dated 2021).

One experiment concerns the target T1, human SGLT1 (Homo sapiens, UniProt P13866).
T1 construct: expressed in transfected cells
T1 sequence (P13866 1-664): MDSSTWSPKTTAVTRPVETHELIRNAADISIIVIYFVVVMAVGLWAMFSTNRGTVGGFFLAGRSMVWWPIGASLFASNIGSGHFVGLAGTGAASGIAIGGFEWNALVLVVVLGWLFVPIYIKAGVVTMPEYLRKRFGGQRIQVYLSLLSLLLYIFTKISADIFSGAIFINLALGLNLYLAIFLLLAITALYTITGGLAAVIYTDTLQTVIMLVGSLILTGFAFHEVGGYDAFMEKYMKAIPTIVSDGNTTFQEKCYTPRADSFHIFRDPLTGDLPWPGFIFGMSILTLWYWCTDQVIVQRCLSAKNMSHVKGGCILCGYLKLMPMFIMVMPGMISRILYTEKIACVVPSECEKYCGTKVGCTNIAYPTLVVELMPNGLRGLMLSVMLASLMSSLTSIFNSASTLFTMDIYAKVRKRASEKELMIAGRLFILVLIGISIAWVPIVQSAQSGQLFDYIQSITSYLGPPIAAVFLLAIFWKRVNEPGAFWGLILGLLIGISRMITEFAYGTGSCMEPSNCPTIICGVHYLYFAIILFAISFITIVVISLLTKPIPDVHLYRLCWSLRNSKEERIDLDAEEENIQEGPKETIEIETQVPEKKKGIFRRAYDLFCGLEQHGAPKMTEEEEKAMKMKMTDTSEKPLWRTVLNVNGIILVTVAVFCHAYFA
Briefly: SGLT1 assay: Na-dependent 14C-AMG uptake in CHO-K1 cells stably expressing human SGLT1. The experiment is classed as cell-based. Particulars: for IC50: average if tested more than once. The protocol: (§1) The ability of the compounds of formula (I) of the present invention to treat an SGLT-mediated condition was determined using the following procedures:
(§2) SGLT1 and SGLT2 were cloned in form of cDNA from human small intestine (Genbank M24847), and from human kidney (Genbank M95549), respectively. Subsequently, each full cDNA was subcloned into pcDNA with each construct's integrity verified through follow-on sequencing. To generate CHO-K1 cells that stably express human SGLT1 or human SGLT2, CHO-K1 cells were transfected using DMRIE-C reagent (Life Technologies, Gaithersburg, Md.). Transfected cells were then selected in the presence of 500 μg/ml of the Geneticin (G418 Cellgro Catalog No. 30234-Cl)
(§3) Individual clones were then characterized using the following cell-based assay for sodium-dependent glucose transport:
(§4) Inhibition of SGLT1 and SGLT2 activity was assessed in CHO K1 cells stably expressing either human SGLT1 or SGLT2, using the SGLT specific glucose analog methyl-glucopyranoside (Sigma Catalog No. M-9376). Cells were plated (45,000 cells/well) in white wall 96-well plates (COSTAR, Cat #3903) for 24 hours in growth medium, then a final concentration of 10 mM Na-Butyrate (ALDRICH Cat #30341-0) was added. The cells were incubated for 24 hours. On the day of the assay, cells were rinsed and treated with test compounds (at concentrations of 0.001 μM to 10 μM) in assay buffer (50 mM HEPES, 20 mM Tris base, 5 mM KCl, 1 mM MgCl2, 1 mM CaCl2 and 137 mM NaCl, pH 7.4) for 10 minutes. Cells were then incubated with ^14C-a-methyl-d-glucopyranoside (AMG, Amersham Catalog No. CFB 76), using 0.07 μCi per well in 500 μM AMG final concentration. The cells were incubated for 2 hours at 37° C. with 5% CO2 and washed two times with ice-cold Phosphate Buffer Solution (Cellgro Catalog No. 21030-CV). The cells were then solubilized by adding 60 μl of MICROSCINT™20 and the Na-dependent ^14C-AMG uptake was quantified by measuring radioactivity. Plates were counted in a TopCount (Packard, Meriden, Conn.)
(§5) Representative compounds of the present invention were tested according to the procedures as described in Biological Example 1 and 2 above, with results as listed in Table 5, below. Results are reported as the %-inhibition or IC50 value. Variability for the functional assay was typically within 20%.

In a further experiment the target is T2, human SGLT2 (Homo sapiens, UniProt P31639).
T2 construct: expressed in transfected cells
T2 sequence (P31639 1-672): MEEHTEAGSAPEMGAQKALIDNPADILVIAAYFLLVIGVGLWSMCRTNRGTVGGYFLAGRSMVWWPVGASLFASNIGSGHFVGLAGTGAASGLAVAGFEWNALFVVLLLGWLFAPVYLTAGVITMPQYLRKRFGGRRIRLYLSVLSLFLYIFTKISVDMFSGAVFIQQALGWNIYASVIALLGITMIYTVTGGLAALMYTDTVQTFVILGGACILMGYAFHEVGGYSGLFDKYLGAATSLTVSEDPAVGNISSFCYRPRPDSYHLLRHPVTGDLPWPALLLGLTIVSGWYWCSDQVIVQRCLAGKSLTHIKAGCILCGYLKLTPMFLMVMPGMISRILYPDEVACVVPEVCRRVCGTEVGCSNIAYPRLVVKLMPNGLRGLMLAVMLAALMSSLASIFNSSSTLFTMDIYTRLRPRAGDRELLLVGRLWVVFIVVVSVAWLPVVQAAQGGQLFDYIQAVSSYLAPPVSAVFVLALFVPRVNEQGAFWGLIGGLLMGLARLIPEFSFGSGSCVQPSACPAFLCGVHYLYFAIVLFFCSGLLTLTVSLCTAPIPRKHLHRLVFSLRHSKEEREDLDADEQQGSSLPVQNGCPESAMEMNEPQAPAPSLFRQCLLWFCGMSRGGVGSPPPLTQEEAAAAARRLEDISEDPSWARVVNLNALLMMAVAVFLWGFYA
Briefly: SGLT2 assay: Na-dependent 14C-AMG uptake in CHO-K1 cells stably expressing human SGLT2. Particulars: for IC50: average if tested more than once; for SGLT2 %-inhibition: @ 0.3 μM. It is filed as cell-based. The protocol:
as §1, §2, §3, §4, §5

Regarding `[2H]C([2H])(c1ccc2c(c1)OCCO2)c1cc([C@@H]2O[C@H](CO)[C@@H](F)[C@H](O)[C@H]2O)c(OC)c2c1OCC2` [Compound 163, (2S,3R,4R,5S,6R)-2-[7-[dideuterio(2,3-dihydro-1,4-benzodioxin-6-yl)methyl]-4-methoxy-2,3-dihydrobenzofuran-5-yl]-5-fluoro-6-(hydroxymethyl)tetrahydropyran-3,4-diol], the IC50 (in general, the point on the concentration scale where inhibition reaches its midpoint) at human SGLT1 was 50 nM; against human SGLT2 it was 8 nM.
`[2H]C([2H])(c1ccc2c(c1)CCCO2)c1cc([C@@H]2O[C@H](CO)[C@@H](F)[C@H](O)[C@H]2O)ccc1CC` [Compound 169] registered an SGLT1 %-inhibition on human SGLT1 (@ 0.3 μM) of 37.2% @ 0.3 μM. Further, at human SGLT2, the SGLT2 %-inhibition is given as 72.7% @ 0.3 μM.
Take `Cc1c(Cc2ccc3c(c2)SCCO3)cc([C@@H]2O[C@H](CO)[C@@H](F)[C@H](O)[C@H]2O)c2c1CCO2` [Compound 132]: the figures for the IC50 against human SGLT1 and at human SGLT2 were 135 nM and 23 nM, respectively.
On to `Cc1c(Cc2ccc3c(c2)CCCO3)cc([C@@H]2O[C@H](CO)[C@@H](F)[C@H](O)[C@H]2O)c2c1CCO2` [Compound 130], for which the SGLT1 %-inhibition at human SGLT1 (@ 0.3 μM) is recorded as 44.8% @ 0.3 μM. This compound also had an SGLT2 %-inhibition on human SGLT2 of 81.6% @ 0.3 μM.
On to `OC[C@H]1O[C@@H](c2cc(Cc3cc4ccccc4s3)c(C3CC3)cc2O)[C@H](O)[C@@H](O)[C@@H]1F` [Compound 29], for which the values for the IC50 at human SGLT1 and against human SGLT2 were 13 nM and 62 nM, respectively.
At human SGLT1 (@ 0.3 μM), `CN1CCCc2ccc(Cc3cc([C@@H]4O[C@H](CO)[C@@H](F)[C@H](O)[C@H]4O)cc4c3OCC4)cc21` [Compound 94] had an SGLT1 %-inhibition of 32.6% @ 0.3 μM. This compound returned an SGLT2 %-inhibition at human SGLT2 of 19.2% @ 0.3 μM.
For `OCCC1COc2c(Cc3ccc4c(c3)OCCO4)cc([C@@H]3O[C@H](CO)[C@@H](F)[C@H](O)[C@H]3O)cc21` (stereo partly drawn) [Compound 93], the SGLT1 %-inhibition at human SGLT1 (@ 0.3 μM) is reported as 33.6% @ 0.3 μM. The same compound displayed an SGLT2 %-inhibition at human SGLT2 of 42.3% @ 0.3 μM.
In the case of `COc1cc(OC)c([C@@H]2O[C@H](CO)[C@@H](F)[C@H](O)[C@H]2O)cc1Cc1cc2ccccc2s1` [Compound 12], the half-maximal inhibitory concentration (IC50) against human SGLT1 amounted to 100 nM; against human SGLT2, 24 nM.
For `Cc1c([C@@H]2O[C@H](CO)[C@@H](F)[C@H](O)[C@H]2O)cc(Cc2ccc3c(c2)SCCO3)c2c1CCO2` [Compound 131], the IC50 on human SGLT1 was found to be 231 nM; against human SGLT2, 12 nM.
Taken in the same sequence, the figures for `COc1c(Cc2ccc3c(c2)CC3)cc([C@@H]2O[C@H](CO)[C@@H](F)[C@H](O)[C@H]2O)c2c1CCO2` [Compound 152] were 6 nM and 6 nM.
For the compound `Cc1cc(O)c([C@@H]2O[C@H](CC#N)[C@@H](F)[C@H](O)[C@H]2O)cc1Cc1cc2ccccc2s1` [Compound 23], 0.3 µM produced 65.2% inhibition against human SGLT1 (@ 0.3 μM). The compound further showed an IC50 on human SGLT2 of 69 nM.
On to `COc1cc(Cl)c([C@@H]2O[C@H](CO)[C@@H](F)[C@H](O)[C@H]2O)cc1Cc1cc2ccccc2s1` [Compound 21], for which the IC50 was 313 nM against human SGLT1 and 112 nM on human SGLT2.
Taken in the same sequence, the figures for `CCc1cc(O)c([C@@H]2O[C@H](CO)[C@@H](F)[C@H](O)[C@H]2O)cc1Cc1cc2c(s1)CCN(C#N)C2` [Compound 118] were 50 nM and 2 nM.
Taken in the same sequence, the figures for `[2H]C([2H])([2H])Oc1c([C@@H]2O[C@H](CO)[C@@H](F)[C@H](O)[C@H]2O)cc(C([2H])([2H])c2ccc3c(c2)OCCO3)c2c1CCO2` [Compound 161, (2S,3R,4R,5S,6R)-2-(7-((2,3-dihydrobenzo[b][1,4]dioxin-6-yl-)methyl-d2)-4-(methoxy-d3)-2,3-dihydrobenzofuran-5-yl)-5-fluoro-6-(hydroxymethyl)tetrahydro-2H-pyran-3,4-diol] were 52 nM and 7 nM.
As to `COc1cc(Cl)c(Cc2cc3c(s2)CCN(C(=O)N2CCCC2)C3)cc1[C@@H]1O[C@H](CO)[C@@H](F)[C@H](O)[C@H]1O` [Compound 96], the SGLT1 %-inhibition at human SGLT1 (@ 0.3 μM) is listed as 29.1% @ 0.3 μM. For the same compound, the SGLT2 %-inhibition on human SGLT2 came to 18.2% @ 0.3 μM.
